Measured values as given in PubChem BioAssay AID2060907 (Molecular Pharmacology Branch, DTP, NCI, 2025).

System: 388556-164-R-J1-PDC complex spheroid viability
Assay: Anticancer human tumor 388556-164-R-J1-PDC patient-derived colon adenocarcinoma cell line growth inhibition [RAS]
Details: for IC50: curve of first compound; for viability, T/C: stronger effect = lower value
Method in brief: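 Agents were tested in combination matrices in half-log decrements from a top concentration at or near clinical Cmax (10 microM if undetermined). Targets were multi-cell spheroids of tumour lines plus HUVEC and MSC stromal cells.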

[1] = second compound 0.000949 µM, first compound 0.00316 µM
[2] = second compound 0.000949 µM, first compound 0.01 µM
[3] = second compound 0.000949 µM, first compound 0.0316 µM
[4] = second compound 0.000949 µM, first compound 0.1 µM
[5] = second compound 0.003 µM, first compound 0.00316 µM
[6] = second compound 0.003 µM, first compound 0.01 µM
[7] = second compound 0.003 µM, first compound 0.0316 µM
[8] = second compound 0.003 µM, first compound 0.1 µM
[9] = second compound 0.00949 µM, first compound 0.00316 µM
[10] = second compound 0.00949 µM, first compound 0.01 µM
[11] = second compound 0.00949 µM, first compound 0.0316 µM
[12] = second compound 0.00949 µM, first compound 0.1 µM
[13] = second compound 0.03 µM, first compound 0.00316 µM
[14] = second compound 0.03 µM, first compound 0.01 µM
[15] = second compound 0.03 µM, first compound 0.0316 µM
[16] = second compound 0.03 µM, first compound 0.1 µM
[17] = second compound 0.0949 µM, first compound 0.00316 µM
[18] = second compound 0.0949 µM, first compound 0.01 µM
[19] = second compound 0.0949 µM, first compound 0.0316 µM
[20] = second compound 0.0949 µM, first compound 0.1 µM
[21] = second compound 0.3 µM, first compound 0.00316 µM
[22] = second compound 0.3 µM, first compound 0.01 µM
[23] = second compound 0.3 µM, first compound 0.0316 µM
[24] = second compound 0.3 µM, first compound 0.1 µM
[25] = second compound 0.000949 µM, first compound 0.316 µM
[26] = second compound 0.000949 µM, first compound 1 µM
[27] = second compound 0.000949 µM, first compound 3.16 µM
[28] = second compound 0.000949 µM, first compound 10 µM
[29] = second compound 0.003 µM, first compound 0.316 µM
[30] = second compound 0.003 µM, first compound 1 µM
[31] = second compound 0.003 µM, first compound 3.16 µM
[32] = second compound 0.003 µM, first compound 10 µM
[33] = second compound 0.00949 µM, first compound 0.316 µM
[34] = second compound 0.00949 µM, first compound 1 µM
[35] = second compound 0.00949 µM, first compound 3.16 µM
[36] = second compound 0.00949 µM, first compound 10 µM
[37] = second compound 0.03 µM, first compound 0.316 µM
[38] = second compound 0.03 µM, first compound 1 µM
[39] = second compound 0.03 µM, first compound 3.16 µM
[40] = second compound 0.03 µM, first compound 10 µM
[41] = second compound 0.0949 µM, first compound 0.316 µM
[42] = second compound 0.0949 µM, first compound 1 µM
[43] = second compound 0.0949 µM, first compound 3.16 µM
[44] = second compound 0.0949 µM, first compound 10 µM
[45] = second compound 0.3 µM, first compound 0.316 µM
[46] = second compound 0.3 µM, first compound 1 µM
[47] = second compound 0.3 µM, first compound 3.16 µM
[48] = second compound 0.3 µM, first compound 10 µM
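Note: spheroids exposed to compound for 7 days before readout.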
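Throughout, for viability, T/C: 100% = DMSO vehicle control luminescence.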

With `CC(C)n1nc(-c2ccc3oc(N)nc3c2)c2c(N)ncnc21` + CCn1c(-c2cc(N3CCN(C)CC3)cnc2C(C)OC)c2c3cc(ccc31)-c1csc(n1)CC(NC(=O)C1CC1C)C(=O)N1CCCC(N1)C(=O)OCC(C)(C)C2 the IC50 (second compound 0.000949 µM) was 43.9 nM, the IC50 (second compound 0.003 µM) was 35.5 nM and the IC50 (second compound 0.00949 µM) was 16.2 nM. The IC50 (second compound 0.03 µM) was 5.2 nM, the IC50 (second compound 0.0949 µM) was < 0.316 nM and the IC50 (second compound 0.3 µM) was < 0.316 nM. It also gave a viability, T/C (second compound 0.000949 µM, first compound 0.000316 µM) of 107%, a viability, T/C (second compound 0.000949 µM, first compound 0.001 µM) of 94.8% and a viability, T/C [1] of 73.7%. For the same compound, the viability, T/C [2] was 71.5%, the viability, T/C [3] was 56.4% and the viability, T/C [4] was 38%. The viability, T/C (second compound 0.003 µM, first compound 0.000316 µM) was 88.3%, the viability, T/C (second compound 0.003 µM, first compound 0.001 µM) was 80.4% and the viability, T/C [5] was 72.2%. The viability, T/C [6] was 68.1%, the viability, T/C [7] was 50.8% and the viability, T/C [8] was 34.9%. For the same compound, the viability, T/C (second compound 0.00949 µM, first compound 0.000316 µM) was 82.4%, the viability, T/C (second compound 0.00949 µM, first compound 0.001 µM) was 78.9% and the viability, T/C [9] was 59.4%. The viability, T/C [10] was 56.5%, the viability, T/C [11] was 47.1% and the viability, T/C [12] was 27.2%. It also gave a viability, T/C (second compound 0.03 µM, first compound 0.000316 µM) of 60.6%, a viability, T/C (second compound 0.03 µM, first compound 0.001 µM) of 55.1% and a viability, T/C [13] of 62.5%. The viability, T/C [14] was 37.6%, the viability, T/C [15] was 34.4% and the viability, T/C [16] was 21.5%. It also gave a viability, T/C (second compound 0.0949 µM, first compound 0.000316 µM) of 46.3%, a viability, T/C (second compound 0.0949 µM, first compound 0.001 µM) of 42.1% and a viability, T/C [17] of 39.1%. It also gave a viability, T/C [18] of 34.4%, a viability, T/C [19] of 27.9% and a viability, T/C [20] of 18.2%. For the same compound, the viability, T/C (second compound 0.3 µM, first compound 0.000316 µM) was 30.6%, the viability, T/C (second compound 0.3 µM, first compound 0.001 µM) was 32.6% and the viability, T/C [21] was 27.9%. For the same compound, the viability, T/C [22] was 23.5%, the viability, T/C [23] was 20.9% and the viability, T/C [24] was 17.1%.

In the case of `CC1(O)CCCC1n1c(=O)c(C(F)F)cc2cnc(NC3CCN(S(C)(=O)=O)CC3)nc21` (stereo not drawn) + CCn1c(-c2cc(N3CCN(C)CC3)cnc2C(C)OC)c2c3cc(ccc31)-c1csc(n1)CC(NC(=O)C1CC1C)C(=O)N1CCCC(N1)C(=O)OCC(C)(C)C2, the IC50 (second compound 0.000949 µM) is reported as > 10000 nM, the IC50 (second compound 0.003 µM) is reported as > 10000 nM and the IC50 (second compound 0.00949 µM) is reported as 9450 nM. For the same compound, the IC50 (second compound 0.03 µM) was > 10000 nM, the IC50 (second compound 0.0949 µM) was < 31.6 nM and the IC50 (second compound 0.3 µM) was < 31.6 nM. For the same compound, the viability, T/C [3] was 91.1%, the viability, T/C [4] was 94.2% and the viability, T/C [25] was 89.8%. The viability, T/C [26] was 91.6%, the viability, T/C [27] was 94.1% and the viability, T/C [28] was 61.7%. The viability, T/C [7] was 102%, the viability, T/C [8] was 91.7% and the viability, T/C [29] was 90%. It also gave a viability, T/C [30] of 78.7%, a viability, T/C [31] of 87.3% and a viability, T/C [32] of 62.8%. The viability, T/C [11] was 78.8%, the viability, T/C [12] was 75.4% and the viability, T/C [33] was 80.6%. It also gave a viability, T/C [34] of 77.9%, a viability, T/C [35] of 72.7% and a viability, T/C [36] of 48.8%. It also gave a viability, T/C [15] of 62.6%, a viability, T/C [16] of 58.5% and a viability, T/C [37] of 64.9%. For the same compound, the viability, T/C [38] was 59.4%, the viability, T/C [39] was 66% and the viability, T/C [40] was 44.2%. The viability, T/C [19] was 46.7%, the viability, T/C [20] was 44% and the viability, T/C [41] was 47.3%. It also gave a viability, T/C [42] of 42.4%, a viability, T/C [43] of 45.7% and a viability, T/C [44] of 35.1%. It also gave a viability, T/C [23] of 31.2%, a viability, T/C [24] of 37% and a viability, T/C [45] of 33.4%. It also gave a viability, T/C [46] of 38.8%, a viability, T/C [47] of 38.1% and a viability, T/C [48] of 24.1%.

With `CCN1CCN(Cc2ccc(Nc3ncc(F)c(-c4cc(F)c5nc(C)n(C(C)C)c5c4)n3)nc2)CC1` + CCn1c(-c2cc(N3CCN(C)CC3)cnc2C(C)OC)c2c3cc(ccc31)-c1csc(n1)CC(NC(=O)C1CC1C)C(=O)N1CCCC(N1)C(=O)OCC(C)(C)C2 the IC50 (second compound 0.000949 µM) was > 1000 nM, the IC50 (second compound 0.003 µM) was > 1000 nM and the IC50 (second compound 0.00949 µM) was 879 nM. The IC50 (second compound 0.03 µM) was 219 nM, the IC50 (second compound 0.0949 µM) was < 3.16 nM and the IC50 (second compound 0.3 µM) was < 3.16 nM. For the same compound, the viability, T/C [1] was 97.5%, the viability, T/C [2] was 92.2% and the viability, T/C [3] was 93.1%. The viability, T/C [4] was 79.4%, the viability, T/C [25] was 75% and the viability, T/C [26] was 75.2%. For the same compound, the viability, T/C [5] was 96%, the viability, T/C [6] was 96.8% and the viability, T/C [7] was 76.6%. For the same compound, the viability, T/C [8] was 71.3%, the viability, T/C [29] was 66.2% and the viability, T/C [30] was 58.7%. For the same compound, the viability, T/C [9] was 79.8%, the viability, T/C [10] was 78.6% and the viability, T/C [11] was 68.5%. It also gave a viability, T/C [12] of 58.1%, a viability, T/C [33] of 62.7% and a viability, T/C [34] of 46.8%. It also gave a viability, T/C [13] of 59%, a viability, T/C [14] of 64.4% and a viability, T/C [15] of 65.9%. It also gave a viability, T/C [16] of 57.9%, a viability, T/C [37] of 46.2% and a viability, T/C [38] of 38.7%. It also gave a viability, T/C [17] of 45.9%, a viability, T/C [18] of 41.2% and a viability, T/C [19] of 35.4%. It also gave a viability, T/C [20] of 30.8%, a viability, T/C [41] of 34% and a viability, T/C [42] of 31.4%. The viability, T/C [21] was 33.2%, the viability, T/C [22] was 32.3% and the viability, T/C [23] was 31.9%. For the same compound, the viability, T/C [24] was 30.8%, the viability, T/C [45] was 29.5% and the viability, T/C [46] was 31.5%.

For `C[C@@H](NC(=O)c1ncnc(N)c1Cl)c1ncc(C(=O)Nc2cc(C(F)(F)F)c(Cl)cn2)s1` + CCn1c(-c2cc(N3CCN(C)CC3)cnc2C(C)OC)c2c3cc(ccc31)-c1csc(n1)CC(NC(=O)C1CC1C)C(=O)N1CCCC(N1)C(=O)OCC(C)(C)C2, the IC50 (second compound 0.000949 µM) was > 10000 nM, the IC50 (second compound 0.003 µM) was > 10000 nM and the IC50 (second compound 0.00949 µM) was > 10000 nM. The IC50 (second compound 0.03 µM) was > 10000 nM, the IC50 (second compound 0.0949 µM) was > 10000 nM and the IC50 (second compound 0.3 µM) was < 31.6 nM. For the same compound, the viability, T/C [3] was 96.3%, the viability, T/C [4] was 127% and the viability, T/C [25] was 105%. The viability, T/C [26] was 117%, the viability, T/C [27] was 129% and the viability, T/C [28] was 109%. It also gave a viability, T/C [7] of 114%, a viability, T/C [8] of 100% and a viability, T/C [29] of 86.5%. It also gave a viability, T/C [30] of 101%, a viability, T/C [31] of 111% and a viability, T/C [32] of 105%. It also gave a viability, T/C [11] of 85%, a viability, T/C [12] of 87.1% and a viability, T/C [33] of 89.5%. The viability, T/C [34] was 82.2%, the viability, T/C [35] was 102% and the viability, T/C [36] was 104%. It also gave a viability, T/C [15] of 75.7%, a viability, T/C [16] of 67.9% and a viability, T/C [37] of 91%. For the same compound, the viability, T/C [38] was 75.1%, the viability, T/C [39] was 78.8% and the viability, T/C [40] was 72.4%. The viability, T/C [19] was 50.2%, the viability, T/C [20] was 54.3% and the viability, T/C [41] was 54.3%. For the same compound, the viability, T/C [42] was 63.9%, the viability, T/C [43] was 71% and the viability, T/C [44] was 61.4%. The viability, T/C [23] was 34.3%, the viability, T/C [24] was 33.2% and the viability, T/C [45] was 38.6%. For the same compound, the viability, T/C [46] was 41.6%, the viability, T/C [47] was 38.5% and the viability, T/C [48] was 44.1%.
